The data set concerns CCRIS mutagenicity, Ames/micronucleus/aberration tests. The data set can be described thus: CCRIS mutagenicity studies.
Where [1] appears, read: Test System: AMES SALMONELLA TYPHIMURIUM, Strain/Indicator: TA98, Metabolic Activation: HAMSTER, LIVER, S-9, AROCLOR 1254, Method: STANDARD PLATE.
Setting [2] is: Test System: AMES SALMONELLA TYPHIMURIUM, Strain/Indicator: TA98, Metabolic Activation: NONE, Method: STANDARD PLATE.
Where [3] appears, read: Test System: AMES SALMONELLA TYPHIMURIUM, Strain/Indicator: TA98, Metabolic Activation: RAT, LIVER, S-9, AROCLOR 1254, Method: STANDARD PLATE.
[4] abbreviates: Test System: AMES SALMONELLA TYPHIMURIUM, Strain/Indicator: TA100, Metabolic Activation: HAMSTER, LIVER, S-9, AROCLOR 1254, Method: STANDARD PLATE.
[5] abbreviates: Test System: AMES SALMONELLA TYPHIMURIUM, Strain/Indicator: TA100, Metabolic Activation: NONE, Method: STANDARD PLATE.
Where [6] appears, read: Test System: AMES SALMONELLA TYPHIMURIUM, Strain/Indicator: TA100, Metabolic Activation: RAT, LIVER, S-9, AROCLOR 1254, Method: STANDARD PLATE.
[7] abbreviates: Test System: AMES SALMONELLA TYPHIMURIUM, Strain/Indicator: TA1535, Metabolic Activation: NONE, Method: STANDARD PLATE.
Where [8] appears, read: Test System: AMES SALMONELLA TYPHIMURIUM, Strain/Indicator: TA1535, Metabolic Activation: RAT, LIVER, S-9, AROCLOR 1254, Method: STANDARD PLATE.
Setting [9] is: Test System: AMES SALMONELLA TYPHIMURIUM, Strain/Indicator: TA1537, Metabolic Activation: NONE, Method: STANDARD PLATE.
Setting [10] is: Test System: AMES SALMONELLA TYPHIMURIUM, Strain/Indicator: TA1537, Metabolic Activation: RAT, LIVER, S-9, AROCLOR 1254, Method: STANDARD PLATE.
Setting [11] is: Test System: AMES SALMONELLA TYPHIMURIUM, Strain/Indicator: TA1538, Metabolic Activation: NONE, Method: STANDARD PLATE.
Where [12] appears, read: Test System: MOUSE LYMPHOMA, Strain/Indicator: L5178Y (TK+/TK-), Metabolic Activation: NONE, Method: SUSPENSION/PLATE.
Where [13] appears, read: Test System: MOUSE LYMPHOMA, Strain/Indicator: L5178Y (TK+/TK-), Metabolic Activation: RAT, LIVER, S-9, AROCLOR 1254, Method: SUSPENSION/PLATE.
Where [14] appears, read: Test System: AMES SALMONELLA TYPHIMURIUM, Strain/Indicator: TA102, Metabolic Activation: NONE, Method: STANDARD PLATE.

Molecules are shown by their SMILES. Calls of active or inactive are those of the source. The rule behind the calls is not given here.

The source of these data is PubChem BioAssay AID1259407 (Chemical Carcinogenesis Research Information System (CCRIS), 2018).

On to `CN(C)C(=O)Oc1ccc[n+](C)c1`, for which the mutagenic call under setting [1] was “inactive; negative”; the mutagenic call under setting [2] was “inactive; negative”; the mutagenic call under setting [3] was “inactive; negative”; the mutagenic call under setting [4] was “inactive; negative”; the mutagenic call under setting [5] was “inactive; negative”; the mutagenic call under setting [6] was “inactive; negative”. Moreover, the mutagenic call (Test System: AMES SALMONELLA TYPHIMURIUM, Strain/Indicator: TA1535, Metabolic Activation: HAMSTER, LIVER, S-9, AROCLOR 1254, Method: STANDARD PLATE) is “inactive; negative”; the mutagenic call under setting [7] is “inactive; negative”; the mutagenic call under setting [8] was “inactive; negative”; the mutagenic call (Test System: AMES SALMONELLA TYPHIMURIUM, Strain/Indicator: TA1537, Metabolic Activation: HAMSTER, LIVER, S-9, AROCLOR 1254, Method: STANDARD PLATE) is “inactive; negative”; the mutagenic call under setting [9] is “inactive; negative”; the mutagenic call under setting [10] is “inactive; negative”. Besides, the mutagenic call is, setting by setting: (Test System: AMES SALMONELLA TYPHIMURIUM, Strain/Indicator: TA1538, Metabolic Activation: HAMSTER, LIVER, S-9, AROCLOR 1254, Method: STANDARD PLATE) “inactive; negative”; under setting [11], “inactive; negative”; (Test System: AMES SALMONELLA TYPHIMURIUM, Strain/Indicator: TA1538, Metabolic Activation: RAT, LIVER, S-9, AROCLOR 1254, Method: STANDARD PLATE) “inactive; negative”; under setting [12], “inactive; negative. reevaluation of results: negative”; under setting [13], “active; positive. reevaluation of results: equivocal”.

Regarding `Clc1ccc2c(c1)C(c1ccccc1)=NCc1nncn1-2`, the mutagenic call under setting [2] was “inactive; negative”; the mutagenic call under setting [3] is “inactive; negative”; the mutagenic call under setting [5] was “inactive; negative”; the mutagenic call under setting [6] was “inactive; negative”; the mutagenic call under setting [14] was “inactive; negative”; the mutagenic call (Test System: AMES SALMONELLA TYPHIMURIUM, Strain/Indicator: TA102, Metabolic Activation: RAT, LIVER, S-9, AROCLOR 1254, Method: STANDARD PLATE) was “inactive; negative”. Moreover, the mutagenic call is, setting by setting: under setting [7], “inactive; negative”; under setting [8], “inactive; negative”; under setting [9], “inactive; negative”; under setting [10], “inactive; negative”; (Test System: E. COLI, Strain/Indicator: WP2 UVRA, Metabolic Activation: NONE, Method: STANDARD PLATE) “inactive; negative”; (Test System: E. COLI, Strain/Indicator: WP2 UVRA, Metabolic Activation: RAT, LIVER, S-9, AROCLOR 1254, Method: STANDARD PLATE) “inactive; negative”.

Regarding `Cc1cn2c([N+](=O)[O-])c(-c3ccc([N+](=O)[O-])cc3)nc2s1`, the mutagenic call is “active; positive” under setting [2]; “active; positive” under setting [5]; “active; positive” under setting [7]; “active; positive” under setting [9]; “active; positive” under setting [11].

As for `N/C(=N\O)c1cc(O)c(O)c(O)c1`, the mutagenic call by setting is: (Test System: AMES SALMONELLA TYPHIMURIUM, Strain/Indicator: TA97, Metabolic Activation: NONE, Method: STANDARD PLATE) “active; positive”; (Test System: AMES SALMONELLA TYPHIMURIUM, Strain/Indicator: TA97, Metabolic Activation: RAT, LIVER, S-9, DELOR 103, Method: STANDARD PLATE) “active; positive”; under setting [2], “inactive; negative”; (Test System: AMES SALMONELLA TYPHIMURIUM, Strain/Indicator: TA98, Metabolic Activation: RAT, LIVER, S-9, DELOR 103, Method: STANDARD PLATE) “inactive; negative”; under setting [5], “inactive; negative”; (Test System: AMES SALMONELLA TYPHIMURIUM, Strain/Indicator: TA100, Metabolic Activation: RAT, LIVER, S-9, DELOR 103, Method: STANDARD PLATE) “inactive; negative”. Further, the mutagenic call by setting is: under setting [14], “inactive; negative”; (Test System: AMES SALMONELLA TYPHIMURIUM, Strain/Indicator: TA102, Metabolic Activation: RAT, LIVER, S-9, DELOR 103, Method: STANDARD PLATE) “inactive; negative”.

For the molecule `CN(C)CCCCl`, the mutagenic call was “inactive; negative” under setting [1]; “inactive; negative” under setting [2]; “inactive; negative” under setting [3]; “active; positive” under setting [4]; “active; positive” under setting [5]; “active; positive” under setting [6]. Moreover, the mutagenic call is “inactive; positive. reevaluation of results: negative” under setting [12] and “active; positive. reevaluation of results: inconclusive” under setting [13].

`Nc1c2ccccc2nc2ccc(O)cc12`: the mutagenic call (Test System: AMES SALMONELLA TYPHIMURIUM, Strain/Indicator: TA1537, Metabolic Activation: NONE, Method: PREINCUBATION) was “active; positive”.

As to `CN(C)CCNC(=O)c1cccc2c1C(=O)c1ccccc1C2=O`, the mutagenic call under setting [9] was “active; positive”.
